How the values were obtained:
[1] = molecular target: T1, Vav2 binding to Rac1 (Homo sapiens, UniProt P63000, G15A); assay: Rac1 GEF assay, Rac1(G15A) pulldown; conditions: 250 nM, MDA-MB-231 lysates
T1 construct: purchased Cell Biolabs, San Diego; CA; host or cells: Vav2 from MDA-MB-231 cell lysate
Procedure: GST-Rac1 (G15A) beads were pre-incubated with vehicle (0.1% DMSO), or 8 μM EHop-016, or 250 nM Compound 4c for 1 hour followed by incubation with MDA-MB-231 cell lysates (equal total protein). Representative Western blot for Rac1(G15A) or pulldowns immunostained for Vav2 is shown (n=3).
MDA-MB-231 cells in culture medium were lysed in 1% Triton X-100, 20 mM HEPES, pH 7.4, 150 mM NaCl, 5 mm MgCl2, and protease inhibitors and processed. Equal amounts of protein from cleared lysates were incubated for 1 h at 4° C. with glutathione-agarose beads conjugated to GST-Rac1(G15A) nucleotide-free mutant (Cell Biolabs, San Diego. CA) that were preincubated (for 1 h) with vehicle or 8 μm EHop-016 or 0.25 μM Compound 4c. The beads were washed, and the lysates and pull-downs were immunoblotted for Tiam-1, Trio, Ect2, p-REX, or Vav2.

[2] = tested on: MDA-MB-435; assay: Cell viability assay (MTT); assay type: cell-based, human; conditions: Homo sapiens, MDA-MB-435
Procedure: Cells plated at equal density were treated at 500 nM of compounds. After 72 hours, cell viability was measured by a MTT assay. n=3; * p<0.05, ** p<0.01, *** p<0.001.
(§1) Cells plated at equal density were treated at 250 nM of 4c at 250 nM.
(§2) Data from 3 biologic replicates each with 2 technical replicates. Four parameter dose-response curves generated using GraphPad Prism are shown.
[…]. GI50 was calculated using Graph pad Prism.
(§3) […] Using CellTiter 96 Non-Radioactive Cell Proliferation Assay (Promega, Corp.) according to manufactures' instructions, formazan was used as an indicator of viable cells at an absorbance 570 nm in a Tecan Microplate Reader M100. Data was calculated as fold change from vehicle and fitted using the 4′parameter logic nonlinear regression model in GraphPad Prism software. (n=3 biologic replicates: with 3 technical replicates each).
A range of compounds were tested by MTT assays for cell viability in MDA-MB-231 triple negative breast cancer (TNBC) cells and MDA-MB-435 HER2++ cancer cells. […].

[3] = tested on: human mammary epithelial cells (HMEC); assay: Cell viability assay (MTT); assay type: cell-based; conditions: 0-1000 nM
Procedure: Cells were treated with 4c at concentrations ranging from 0-1000 nM. Cell viability was assessed by a MTT assay. n=2.
Equal number of cells were seeded in a 24 well plate and incubated with vehicle or compounds according to this disclosure at concentrations between 1 and 0.001 nM for 72 and 120 hrs. Using CellTiter 96 Non-Radioactive Cell Proliferation Assay (Promega, Corp.) according to manufactures' instructions, formazan was used as an indicator of viable cells at an absorbance 570 nm in a Tecan Microplate Reader M100. Data was calculated as fold change from vehicle and fitted using the 4′parameter logic nonlinear regression model in GraphPad Prism software. (n=3 biologic replicates: with 3 technical replicates each).

[4] = tested on: RAW264.7 macrophage cell line; assay: Wound healing assay; assay type: cell-based, murine; conditions: Mus musculus, read-out: inhibition of wound closure, RAW264.7
Procedure: Mircrographs were digitally acquired at 0, 12, and 24 hours and the area of the wound quantified relative to the distance at time 0. n=3.
Murine macrophage cell line, RAW264.7, plated at equal density were subjected to a scratch in the center and treated with 4c at 0, 150 nM, 250 nM, or 500 nM. Mircrographs were digitally acquired at 0, 12, and 24 hours and the area of the wound quantified relative to the distance at time 0. n=3.

[5] = tested on: MDA-MB-231; assay: Cell viability assay (MTT); assay type: cell-based; conditions: Homo sapiens, MDA-MB-231
Procedure: Cells plated at equal density were treated at 500 nM of compounds. […]
as §1, §2
Cell viability relative to vehicle (100%) is shown.
as §3
A range of compounds were tested by MTT assays for cell viability in MDA-MB-231 triple negative breast cancer (TNBC) cells and MDA-MB-435 HER2++ cancer cells.

- inhibition at […] [1]: ~80%
- GI50 ([2]; 120 hours, 0-1000 nM, read-out: GI50, MDA-MB-435): 0.261 µM
- GI50 ([5]; summary over breast cancer cell lines, read-out: GI50 for breast cancer cell viability inhibition): ~0.3 µM
SMILES: CCn1c2ccccc2c2cc(-n3nnc(C(O)c4cccc(OC)c4)c3-c3ccccc3)ccc21 (stereo not shown) [Compound 4c, (1-(9-ethyl-9H-carbazol-3-yl)-5-phenyl-1H-1,2,3-triazol-4-yl) (3-methoxyphenyl) methanol]
- inhibition at […] ([2]; 250 nM (FIG. 1C), read-out: inhibition of MDA-MB-435 cells): ~60%
- cytotoxicity at 0.5 µM ([2]; 500 nM, 72 hours, read-out: decrease in cell viability, MDA-MB-435): ~80%
- effect on non-transformed HMEC viability [3]: did not affect
- inhibition at 0.15 µM ([4]; 150 nM): 50%
- inhibition at […] ([4]; 250 nM): 80%
- inhibition at 0.5 µM ([4]; 500 nM): 90%
- cytotoxicity at 0.5 µM ([5]; 500 nM, 72 hours, read-out: inhibition of MDA-MB-231 cell viability): < 50%

From patent publication US20250214973A1, “1,4,5-TRISUBSTITUTED-1,2,3-TRIAZOLES AND USES THEREOF” (UNIVERSITY OF PUERTO RICO, priority 2022, published 2025)
